Assay results published in paper PMC10604444, “Extra-Synaptic GABAA Receptor Potentiation and Neurosteroid-Induced Learning Deficits Are Inhibited by GR3027, a GABAA Modulating Steroid Antagonist” (Biomolecules, 2023).

Test system: male Wistar rats
Assay: Morris water maze (MWM) learning and spatial memory
Format: in vivo, rat
Settings: GR3027 alone 11 mg/kg i.v.
Experimental: Animals: Male Wistar rats were used to study the effect of AP on learning and spatial memory (Scanbur BK, Sweden). The rats were marked on the tail with a permanent spray (Porcimark™) for identification. A 12/12 h light/dark cycle was used (lights off at 18.00 h), food and water were available ad libitum, and the housing room temperature was kept at 22–23 °C. Animal testing was performed during the light part of the day. After arrival at the animal facility, the handling of all rats was performed for two weeks, including habituation to all relevant experimental procedures. […]
Spatial memory: Spatial memory was assessed using the Morris water maze (MWM), as previously described in detail, and in brief as follows. […] MWM parameters (latency, path, swimming speed, floating, and thigmotaxis) were monitored and quantified using the computer tracking system Menu 2020 (HVS Image, UK). […]
Substances and treatments: AP (3α-OH-5α-pregnan-20-one; 2.0 mg/mL; Umecrine AB, Sweden) and GR3027 (3α-ethynyl-3β-hydroxyl-5α-androstan-17-oxime; 2.0 mg/mL; Umecrine Cognition AB, Stockholm, Sweden) were dissolved in 10% 2-hydroxypropyl-beta-cyclodextrin (β-CD; Sigma, St. Louis, MO, USA) using ultrasound. The various combination treatments were then prepared by mixing these solutions in calculated proportions (Table 1). […]

## C#C[C@]1(O)CC[C@@]2(C)[C@@H](CC[C@@H]3[C@@H]2CC[C@]2(C)/C(=N/O)CC[C@@H]32)C1 [GR3027, 3α-ethynyl-3β-hydroxyl-5α-androstan-17-oxime]
P < 0.05
  Swim speed vs groups treated with AP or AP:GR3027 combinations: lower
P > 0.05
  Swim speed vs vehicle group: no different
